Values of other authors as cited in patent US20110236307A1, “IN VIVO IMAGING METHOD” (priority 2008, published 2011).

System: protein deposition in PD
Conditions: PD patients, brain

Question: With `[11CH3]Nc1ccc(-c2nc3ccc(O)cc3s2)cc1` [[^11C]PIB, ^11C-6-OH-benzothiazole] as the molecule, how does the “in vivo binding pattern” value read?
Answer: Its value is “decreased from the brainstem to the cortical areas”.
